# Test results from US9855273B2, “Combination therapy for MDS” (priority 2013, dated 2018).
# Experiments:
# BCL2 = conditions: 10 μM
# Procedure: (§1) Total protein lysates were obtained from cells by lysing the samples in cold RIPA buffer (50 mM Tris-HCl, 150 mM NaCl, 1 mM EDTA, 1% Triton X-100 and 0.1% SDS), in the presence of PMSF, sodium orthovanadate, protease and phosphatase inhibitors. After being re-suspended in RIPA cells were briefly sonicated. Protein concentration was evaluated by a BCA assay (Pierce). For immunoprecipitation, TRAF6 or IRAK1 antibodies (2 μg) were added to cell lysates (10 mg) for 3 h at 4° C. and captured by the addition of Protein A/G Plus beads (sc-2003; Santa Cruz) as described before (Starczynowski et al., 2011). The immune complexes were washed with lysis buffer followed by the addition of SDS sample buffer. The bound proteins were separated by SDS-polyacrylamide gel electrophoresis, transferred to nitrocellulose membranes, and analyzed by immunoblotting. Western blot analysis was performed with the following antibodies: TRAF6 (sc-7221; Santa Cruz), IRAK1 (sc-7883; Santa Cruz), ubiquitin (sc-8017; Santa Cruz), IKKβ (2370; Cell Signaling Technology), GAPDH (5174; Cell Signaling Technology), p38 MAPK (9212; Cell Signaling Technology), phopho-p38 MAPK (4631; Cell Signaling Technology), phospho-IKKα/β (2697; Cell Signaling Technology), phospho-IRAK1 (S376) (PAB0497; Abnova), phospho-IRAK1 (T209) (A1074; AssaybioTech), phospho-ERK (4695; Cell Signaling Technology), Lck (2752; Cell Signaling Technology), phospho-Lck (Tyr505) (2751; Cell Signaling Technology), IRAK4 (4363; Cell Signaling Technology), phospho-IRAK4 (Thr345/Ser346) (7652; Cell Signaling Technology), Src (2102; Cell Signaling Technology), Phospho-Src (Tyr416) (2113; Cell Signaling Technology), BCL-2 (2870; Cell Signaling Technology) and Actin (4968; Cell Signaling Technology).
# IRAK1 (pIRAK1T209) = IRAK1 (pIRAK1T209) (Homo sapiens, UniProt P51617)
# Procedure: as §1
# TRAF6/NF-κB signaling = tested on: TRAF6/NF-κB signaling
# Procedure: as §1
# [1] = tested on: MDS/AML cell lines (MDSL, TF1, THP1, HL60); experiment: Viable cell growth (trypan blue exclusion) of MDS/AML cell lines; assay type: cell-based, human
# Procedure: Acute myeloid leukemic cell lines, HL60, THP1, and TF-1 were purchased from the American Type Culture Collection. MOLM13 were purchased from AddexBio. The myelodysplastic cell line, MDS-L, was provided by Dr. Kaoru Tohyama (Kawasaki Medical School, Okayama, Japan) (Matsuoka et al., 2010). […] Additionally, both the MDSL and TF-1 cell lines were cultured in the presence of 10 ng/mL human recombinant IL-3 (Stemcell Technologies).
# MDS/AML cell lines = experiment: AnnexinV apoptosis staining of MDS/AML cell lines; assay type: cell-based, human; conditions: all cell lines, 48 hrs of treatment, 10 μM
# Procedure: Cells were stained after either drug treatment or lentiviral transduction with Annexin V (eBioscience) and propidium iodide (Sigma-Aldrich), or 7AAD (eBioscience) according to the manufacturer's instructions. Analysis was performed using BD FACSCalibur or FACSCanto flow cytometer with either CellQuest or Diva software.
# MDSL cells [2] = experiment: Cell cycle analysis by BrdU/7AAD; assay type: cell-based, human; conditions: 10 μM, up to 6 days
# Procedure: MDS/AML cell lines with hyperphosphorylated IRAK1 (FIG. 1D) were evaluated for sensitivity to IRAK-Inh. MDS/AML cell lines exposed to increasing concentration of IRAK-Inh were cultured for up to 6 days in vitro (FIG. 3A). […] In support of this observation, the inhibitory effect of IRAK-Inh on the cell lines correlated with the level of phosphorylated IRAK1 (R2=0.36; FIG. 3B). In parallel, cell viability was examined after 48 hrs of treatment with the IRAK-Inh. […] To investigate whether IRAK-Inh affects cell cycle progression, MDSL cells were treated with 10 μM IRAK-Inh for up to 6 days and evaluated by BrdU/7AAD staining (FIG. 3D).
# MDSL cells [3] = experiment: MDSL xenograft, cells pre-treated in vitro, NSGS mice; assay type: in vivo
# Procedure: Xenograftment of NOD/SCID-IL2Rγ(NSG) and NSG-hSCF/hGM-CSF/hIL3 (NSGS) MDSL cells (1×10^6-5×10^6) were injected into the tail veins of 8-week old sublethally irradiated ([…]) NSG or NSG animals engineered to express human SCF, GM-CSF, and IL3 (NSGS) as previously described (Wunderlich et al., 2010). Mice were monitored by performing complete blood counts (Drew Hemavet 950FS). Following red cell lysis, human MDSL cells were identified by hCD45-FITC staining. In vivo delivery of IRAK-Inh approach is adapted from previous reports (Yang et al., 2011): IRAK-Inh was diluted in DMSO (5 mM) and further dissolved in sterile phosphate buffered saline (PBS; pH 7.2). Animals were injected i.p. with 2.12 mg/kg IRAK-Inh 3× weekly.
# To determine whether IRAK-Inh can delay human MDS-like disease in vivo, MDSL were pre-treated with IRAK-Inh (10 μM) for 24 hrs in vitro and subsequently injected intravenously (i.v.) into NSG (5×10^6 cells) and NSGS (1×10^6 cells) recipient mice (FIG. 4A). This approach permitted us to evaluate the cell autonomous effect of IRAK-Inh on MDS cell viability and engraftment without altering endogenous IRAK1 function in the mouse.
# Moreover, we investigated whether combined IRAK1 and BCL2 inhibition could delay human MDS-like disease in vivo. MDSL cells were treated with IRAK-Inh (10 μM) and/or ABT-263 (0.1 μM) for 48 hrs in vitro and subsequently injected i.v. into NSGS mice (FIG. 4A).
# IRAK4 = IRAK4 (Homo sapiens, UniProt Q9NWZ3); conditions: read-out: IC50 IRAK4; Powers et al., 2006; cited from earlier work
# pp60^Src = pp60^Src (Homo sapiens, UniProt P12931); conditions: read-out: IC50 pp60Src; Powers et al., 2006; cited from earlier work
# Lck = Lck (Homo sapiens, UniProt P06239); conditions: read-out: IC50 Lck; Powers et al., 2006; cited from earlier work
# Sequence of Lck (P06239 whole entry, species assumed): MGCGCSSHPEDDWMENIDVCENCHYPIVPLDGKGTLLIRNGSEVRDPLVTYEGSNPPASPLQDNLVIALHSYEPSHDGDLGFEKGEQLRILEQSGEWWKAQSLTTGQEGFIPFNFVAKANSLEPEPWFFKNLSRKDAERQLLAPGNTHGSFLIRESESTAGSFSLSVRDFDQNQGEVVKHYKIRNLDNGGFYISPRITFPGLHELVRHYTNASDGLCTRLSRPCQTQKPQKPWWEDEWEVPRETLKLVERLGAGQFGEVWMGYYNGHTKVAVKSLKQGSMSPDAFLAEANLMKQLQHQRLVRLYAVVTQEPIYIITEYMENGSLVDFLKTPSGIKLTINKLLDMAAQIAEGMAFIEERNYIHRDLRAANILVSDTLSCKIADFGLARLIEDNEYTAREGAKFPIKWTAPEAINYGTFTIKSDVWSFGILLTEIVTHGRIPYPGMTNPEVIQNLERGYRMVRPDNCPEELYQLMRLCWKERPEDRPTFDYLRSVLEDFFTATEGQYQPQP
# Sequence of IRAK1 (pIRAK1T209) (P51617 whole entry): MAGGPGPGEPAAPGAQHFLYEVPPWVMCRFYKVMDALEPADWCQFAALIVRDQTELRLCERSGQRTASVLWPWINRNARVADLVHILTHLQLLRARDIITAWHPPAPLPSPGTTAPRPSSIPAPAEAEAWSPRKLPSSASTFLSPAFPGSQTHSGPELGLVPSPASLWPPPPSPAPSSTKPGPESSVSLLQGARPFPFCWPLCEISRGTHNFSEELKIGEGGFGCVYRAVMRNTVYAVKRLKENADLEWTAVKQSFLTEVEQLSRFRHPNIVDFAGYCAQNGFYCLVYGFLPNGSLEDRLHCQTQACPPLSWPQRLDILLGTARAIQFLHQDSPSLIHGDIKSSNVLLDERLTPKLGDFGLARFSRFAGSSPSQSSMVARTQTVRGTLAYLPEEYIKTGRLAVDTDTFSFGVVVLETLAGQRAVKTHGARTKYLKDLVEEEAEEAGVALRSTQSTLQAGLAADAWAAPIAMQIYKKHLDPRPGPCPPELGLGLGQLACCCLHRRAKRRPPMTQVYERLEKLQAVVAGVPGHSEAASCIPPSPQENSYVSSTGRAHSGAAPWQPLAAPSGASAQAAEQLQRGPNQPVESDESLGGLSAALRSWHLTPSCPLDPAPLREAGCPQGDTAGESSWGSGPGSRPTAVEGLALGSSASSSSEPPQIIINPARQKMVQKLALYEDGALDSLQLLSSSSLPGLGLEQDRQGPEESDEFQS
# Sequence of IRAK4 (Q9NWZ3 whole entry, species assumed): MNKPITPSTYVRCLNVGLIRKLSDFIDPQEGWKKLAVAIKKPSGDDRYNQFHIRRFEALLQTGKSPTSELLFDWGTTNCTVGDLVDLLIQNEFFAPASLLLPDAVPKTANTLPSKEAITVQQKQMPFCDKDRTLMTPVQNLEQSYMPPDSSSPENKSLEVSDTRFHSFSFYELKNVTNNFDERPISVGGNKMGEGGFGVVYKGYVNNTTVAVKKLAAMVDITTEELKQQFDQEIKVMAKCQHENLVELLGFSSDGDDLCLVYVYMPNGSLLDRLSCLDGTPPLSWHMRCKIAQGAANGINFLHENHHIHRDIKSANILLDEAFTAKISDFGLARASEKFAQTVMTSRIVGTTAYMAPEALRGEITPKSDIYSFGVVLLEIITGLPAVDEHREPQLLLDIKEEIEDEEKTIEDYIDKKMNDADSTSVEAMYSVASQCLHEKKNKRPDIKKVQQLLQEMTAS
# Sequence of pp60^Src (P12931 whole entry): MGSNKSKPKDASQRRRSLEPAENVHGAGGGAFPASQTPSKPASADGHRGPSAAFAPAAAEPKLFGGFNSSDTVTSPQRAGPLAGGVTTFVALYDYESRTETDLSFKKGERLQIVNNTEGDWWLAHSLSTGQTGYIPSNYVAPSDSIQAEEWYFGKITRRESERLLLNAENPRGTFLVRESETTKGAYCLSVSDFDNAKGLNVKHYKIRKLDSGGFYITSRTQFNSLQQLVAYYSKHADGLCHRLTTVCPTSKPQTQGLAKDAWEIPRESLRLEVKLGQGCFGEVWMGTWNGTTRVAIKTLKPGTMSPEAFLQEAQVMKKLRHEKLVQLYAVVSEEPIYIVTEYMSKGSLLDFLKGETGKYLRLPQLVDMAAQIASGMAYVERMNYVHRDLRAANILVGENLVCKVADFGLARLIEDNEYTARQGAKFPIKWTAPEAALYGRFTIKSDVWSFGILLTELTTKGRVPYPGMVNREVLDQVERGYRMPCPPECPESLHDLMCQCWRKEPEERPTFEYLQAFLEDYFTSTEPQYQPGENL
smiles,measurement,setting,value
"O=C(Nc1nc2ccccc2n1CCN1CCOCC1)c1cccc([N+](=O)[O-])c1 [IRAK-Inh, N-(2-morpholinylethyl)-2-(3-nitrobenzoylamido)-benzimidazole]",BCL2 expression,BCL2,increased in several of the cell lines examined
same,phosphorylated IRAK1 reduced by,"IRAK1 (pIRAK1T209); 10 μM, 24 hrs, cell lines and patient marrow cells",~70%
same,phosphorylation and K63-linked ubiquitination of immunoprecipitated IRAK1,"IRAK1 (pIRAK1T209); THP1, 10 μM, 24 hrs",reduced phosphorylation and K63-linked ubiquitination
same,pIRAK1T209 inhibited by,IRAK1 (pIRAK1T209); cells with lentiviral IRAK1 or TRAF6 overexpression,~50%
same,kinases with structural homology to IRAK1 targeted in cells,"IRAK1 (pIRAK1T209); malignant myeloid cells, IRAK1, IRAK4, Src, Lck immunoblots",only IRAK1 is a target
same,p100/p52 processing (non-canonical NF-κB),TRAF6/NF-κB signaling; 10 μM for 24 hrs,completely blocked
same,pIKKα/IKKβ,"TRAF6/NF-κB signaling; 10 μM for 24 hrs, vector- and TRAF6-expressing cells",reduced pIKKα/IKKβ
same,polyubiquitinated TRAF6,"TRAF6/NF-κB signaling; THP1, 10 μM, 24 hrs",reduced polyubiquitinated TRAF6
same,viability of HL60 cells,[1]; HL60,only modestly reduced
same,sensitivity of HL60 cells,"[1]; HL60, IRAK-Inh 10 μM, ABT-263 0.1 μM, alone or combined",refractory
same,MDS/AML cell line growth and survival,"[1]; IRAK-Inh 10 μM, ABT-263 0.1 μM, alone or co-treatment",modest effects
same,cell proliferation,"[1]; MDSL, TF1 and THP1, 0-10 μM, up to 6 days",dose-dependent impairment
same,apoptosis,MDS/AML cell lines,modest increase in apoptosis
same,proportion in G0/G1,MDSL cells [2],62.7%±1.1
same,proportion of sub-G0 cells,MDSL cells [2],5.4%±0.3
same,viable cells in S phase,MDSL cells [2],4.3%±0.4
same,median survival,"MDSL cells [3]; MDSL pre-treated 10 μM 24 hrs, 1×10^6 cells i.v., control 29 days",38 days
same,median survival,"MDSL cells [3]; MDSL treated in vitro with IRAK-Inh 10 μM and/or ABT-263 0.1 μM, DMSO 28 days",~35 days
same,"red blood cell numbers, hemoglobin, hematocrit and platelets",MDSL cells [3]; mice transplanted with pre-treated MDSL cells,significantly improved
same,IC50,IRAK4,0.2 µM
same,IC50,pp60^Src,> 10 µM
same,IC50,Lck,> 10 µM
